Source: patent US12036221B2, “Ketamine or dextromethorphan formulations and methods of use” (West Virginia University, priority 2014, dated 2024)

How the values were obtained:
[1] = forced swim test (preclinical); format: in vivo; conditions: preclinical studies
[2] = test system: NMDA receptors; conditions: cited from earlier work
[3] = test system: sigma receptors; conditions: cited from earlier work
[4] = in vivo; cited from earlier work
[5] = test system: depression; conditions: cited from earlier work
[6] = test system: treatment resistant patients; test: off-label use of transbuccal ketamine in treatment resistant patients (day-hospital, preliminary data)

SMILES | immobility time in the forced swim test [1] | affinity for NMDA receptors [2] | affinity for sigma receptors [3] | metabolism in the body [4] | duration of antidepressant effects ([5]; in vivo) | onset of antidepressant effects after administration ([5]; off-label use) [h] | onset of rapid acting antidepressant effects ([5]; sub-anesthetic doses) | onset of antidepressant effects ([6]; 0.5 mg/kg liquid ketamine held in the mouth (transbuccal), patient report and clinician observation) [h] | side effects ([6]; 0.5 mg/kg liquid ketamine, transbuccal / oral mucosa absorption)
COc1ccc2c(c1)[C@]13CCCC[C@@H]1[C@H](C2)N(C)CC3 [DM, dextromethorphan] | dose dependently reduces immobility time | moderate affinity | significant affinity | rapidly metabolized in the body to dextrorphan |  |  |  |  | 
CN(C)CCCN1c2ccccc2CCc2ccccc21 [imipramine] | dose dependently reduces immobility time |  |  |  |  |  |  |  | 
CNC1(c2ccccc2Cl)CCCCC1=O (stereo not drawn) [ketamine] | dose dependently reduces immobility time |  | significant affinity |  | up to two | ≤ 24 | two | ≤ 24 | No side effects (except for a transient, mild headache and slight dizziness in one patient each soon after administration)
